Experimental data as given in patent US20240316150A1, “METHOD FOR PREVENTION OR TREATMENT OF DISEASES CAUSED BY PATHOGEN-[…] PATTERN” (priority 2021, published 2024).
Where two headings read alike, the source gives them in different places. Ends that are not written are not given here.

Experiments:
interleukin-1β (IL-1β) = experiment: IL-1β mRNA in liver, carbon tetrachloride plus LPS mice; type: in vivo, BALB/c mice; conditions: LPS 0.3 mg/kg i.p. for 2 weeks on carbon tetrachloride injury
Procedure: In one experiment, adult male BALB/c mice were intraperitoneally injected with escalated levels of carbon tetrachloride (CC14, 1.0-2.5 ml/kg body weight) for 2 weeks. Then, some mice were given lipopolysaccharides (LPS, 0.3 mg/kg, i.p.) for an additional 2 weeks. Under the condition, some mice were supplemented with cholestyramine at 3 w/w. % in the chow for an additional 4 weeks. […] It is known that PAMPs activate many types of cells to produce interleukin-1 (IL-1), leading to fever, cytokine storms, and tissue damage. In this current disclosure, the cationic polymer in the oral administration can be used for sequestration of intestinal endotoxins, which consequently can alleviate drug-induced liver inflammation, a common mechanism of action for many types of liver injury and fibrogenesis.

occludin = experiment: Occludin mRNA in ileum (RT-qPCR), carbon tetrachloride plus LPS mice; type: in vivo, BALB/c mice; conditions: LPS 0.3 mg/kg i.p. for 2 weeks
Procedure: The tight junction proteins are essential components of intestinal epithelial cells and the innate immune system. In one experiment, adult male BALB/c mice were intraperitoneally injected with carbon tetrachloride (CC14, 1.0-2.5 ml/kg body weight) for 2 weeks. Then, some mice were given lipopolysaccharides (LPS, 0.3 mg/kg, i.p.) for an additional 2 weeks.

type-1 collagen, α-1 = experiment: Type-1 collagen mRNA in liver, carbon tetrachloride plus LPS mice; type: in vivo, BALB/c mice; conditions: LPS 0.3 mg/kg i.p. for 2 weeks on carbon tetrachloride injury
Procedure: In one experiment, adult male BALB/c mice were intraperitoneally injected with escalated dosage of carbon tetrachloride (CC14, 1.0-2.5 ml/kg body weight) for 2 weeks. Then, some adult male BALB/c mice were given additional lipopolysaccharides (LPS, 0.3 mg/kg, i.p.) for 2 weeks. At such condition, some mice were supplemented with cholestyramine at 3%w/w in the chow for 4 weeks. […] In normal liver tissues, HSCs are quiescent, featured as storing vitamin A and producing type-4 collagen and other loose extracellular matrix (ECM). The high expression of collagen and the formation of fibrotic septa are common in various liver diseases. […] Endotoxemia is common in various hepatic fibrosis and cirrhosis, caused by alcohol, drugs, viruses (such as HBV and HCV), and immune system disorders. Therefore, the current disclosure can be applied for treatment of various forms of liver fibrosis.

[1] = system: α-defensin-5 (DEFA5) produced by Paneth cells; experiment: α-defensin-5 expression in ileum, carbon tetrachloride plus LPS mice; type: in vivo, BALB/c mice; conditions: LPS 0.3 mg/kg i.p. for 2 weeks
Procedure: In one experiment, adult male BALB/c mice were intraperitoneally injected with escalated dosage of carbon tetrachloride (CC14 from 1.0 to 2.5 ml/kg body weight) for 2 weeks. Then, some mice were given lipopolysaccharides (LPS, 0.3 mg/kg, i.p.) for an additional 2 weeks. […] Lower DEFA5 levels worsen gut microbiota into dysbiosis state, and conversely, increased level of endotoxin may contribute to liver inflammation, leading to tissue injury and fibrogenesis.

monocytes [2] = type: cell-based; conditions: Example 26, FIG. 22
[3] = Sirius Red staining of liver, carbon tetrachloride plus LPS mice; type: in vivo, BALB/c mice; conditions: LPS 0.3 mg/kg i.p. for 2 weeks on carbon tetrachloride injury
Procedure: In another experiment, adult male BALB/c mice were injected intraperitoneally with escalated dosage of carbon tetrachloride (CC14 from 1.0 to 2.5 ml/kg body weight) for 2 weeks. And then some mice were given lipopolysaccharides injection (LPS at 0.3 mg/kg, i.p.) for an additional 2 weeks. Under sustained injury conditions, some mice were supplemented with cholestyramine at 3% w/w in the chow for another 4 weeks. […] It is well known that hepatic injury induced activation of hepatic stellate cells (HSCs) mediate hepatic fibrosis.

monocytes [4] = type: cell-based
Muc-2 = Muc-2 mRNA in ileum (RT-qPCR), carbon tetrachloride plus LPS mice; type: in vivo, BALB/c mice; conditions: LPS 0.3 mg/kg i.p. for 2 weeks
Procedure: In one experiment, adult male BALB/c mice were intraperitoneally injected with escalated dosage of carbon tetrachloride (CC14 from 1.0 to 2.5 ml/kg body weight) for an additional 2 weeks. Then, some mice were given lipopolysaccharides (LPS, 0.3 mg/kg, i.p.) for an additional 2 weeks.

[5] = Intestinal permeability by FITC levels in bloodstream, carbon tetrachloride mice; type: in vivo, BALB/c mice; conditions: 10 mg twice a week for 8 weeks, continued carbon tetrachloride
Procedure: In one experiment, adult male BALB/c mice were given intraperitoneal injections of carbon tetrachloride for 4 weeks; while continuing administration of carbon tetrachloride, some mice were given the synthetic human α-defensin-5 (DEFA5) (10 mg, twice a week) for 8 weeks. Finally, the mice were given fluorescein isothiocyanate (FITC). […] Vitamin D deficiency affects the expression of the defensins secreted by Paneth cells, resulting in small intestinal bacterial overgrowth (SIBO) and the translocation of PAMPs into the bloodstream, thereby causing chronic inflammation. Therefore, the defensins, as a therapeutic API, can treat various gastrointestinal disease and alleviate drug-induced liver fibrosis.

[6] = Sirius Red staining for liver fibrosis, carbon tetrachloride mice given DEFA5; type: in vivo, BALB/c mice; conditions: oral 10 mg twice a week for 8 weeks, continued carbon tetrachloride
Source text: Paneth cells secret innate immune substances, such as antimicrobial peptides, to maintain intestinal homeostasis. The epithelial cells of the small intestine and the innate immune substances maintain the gastrointestinal barrier function, protect against the penetration of commensal and pathogenic bacteria, and safeguard intestinal epithelial cells. The antimicrobial peptides can suppress the small intestinal overgrowth of bacteria (SIBO), a common pathologic condition for many metabolic diseases. In one experiment, adult male BALB/c mice were given intraperitoneal injections of carbon tetrachloride for 4 weeks. While continuing administration of carbon tetrachloride, some mice were orally given synthetic human α-defensin-5 (10 mg, twice a week) for an additional 8 weeks (shown in FIG. 26A). […] The mechanism of action by the DEFA5 as API can be explained in part by inhibiting PAMPs, thereby reducing liver inflammation and damage, which in turn reduces the transdifferentiation of HSC and lowers liver fibrosis score.

[7] = Bloodstream endotoxin (LAL test), carbon tetrachloride mice given DEFA5; type: in vivo, BALB/c mice; conditions: 10 mg twice a week for 8 weeks, continued carbon tetrachloride
Procedure: In one experiment, adult male BALB/c mice were given intraperitoneal injections of carbon tetrachloride for 4 weeks. While continuing administration of carbon tetrachloride, some mice were given the synthetic human α-defensin-5 (DEFA5) (10 mg, twice a week) for 8 weeks.

gut microbiota = experiment: Distribution of bacterial microbiota in feces, carbon tetrachloride mice given DEFA5; type: in vivo, BALB/c mice; conditions: 10 mg twice a week for 8 weeks
Procedure: In one experiment, adult male BALB/c mice were given intraperitoneal injections of carbon tetrachloride for 4 weeks; while continuing administration of carbon tetrachloride, some mice were given the synthetic human α-defensin-5 (DEFA5) (10 mg, twice a week) for 8 weeks.

Row | Substance | drug-induced hepatic inflammation, mRNA expression of IL-1B in the liver (interleukin-1β (IL-1β)) | mRNA expression of occludin gene in ileum tissues (occludin) | drug-induced cirrhosis, type-I collagen mRNA (type-1 collagen, α-1) | expression levels of α-defensin-5 (DEFA5) in ileum tissue [1] | increase of mRNA expression of IL-1B (monocytes [2]) | drug-induced cirrhosis, fibrotic histological analysis (Sirius Red) [3] | increase of mRNA expression of TNF-α (monocytes [4]; Example 25, FIG. 21) | increase of mRNA expression of TNF-α (monocytes [4]; Example 27, FIG. 23) | mRNA expression of Muc-2 by Goblet cells in ileum tissue (Muc-2) | intestinal permeability (FITC levels in bloodstream) [5] | liver fibrosis (Sirius Red) [6] | endotoxin translocation into the bloodstream [7] | balance of intestinal bacterial microbiota (gut microbiota; continued carbon tetrachloride) | abundance of Bacteroidetes (gut microbiota; feces) | abundance of Firmicutes (gut microbiota; feces) | abundance of gamma-Proteobacteria (gut microbiota; feces)
1 | lipopolysaccharides [LPS] | exacerbates the drug-induced hepatic inflammation | suppressed the mRNA expression of occludin gene | exacerbates the drug-induced cirrhosis | suppressed the expression levels of α-defensin-5 (DEFA5) | about 9 times | exacerbate the drug-induced cirrhosis | about 8 times | about 10 times | reduced the mRNA expression of Muc-2 |  |  |  |  |  |  | 
2 | α-defensin-5 (ATCYCRHGRCATRESLSGVCEISGRLYRLCC; not fully specified (bridges); also: three disulfide bonds) [DEFA5, ATCYCRHGRCATRESLSGVCEISGRLYRLCCR, three disulfide bonds; antimicrobial peptide of Paneth cells] |  |  |  |  |  |  |  |  |  | reduce intestinal permeability | reduced liver fibrosis caused by liver injury | reduced endotoxin translocation into the bloodstream | balanced the intestinal bacterial microbiota | increasing the abundance | reducing the abundance | reducing the abundance
